The values below come from US7803930B2, “Antisense modulation of apolipoprotein B-expression” (Isis Pharmaceuticals, Inc., priority 2002, dated 2010).

In the oligonucleotide strings, read from the 5' end, every base follows the letter of its sugar. An asterisk marks phosphorothioate; unmarked linkages are phosphodiester. Other units and linkages are bracketed, terminal groups are in braces. A string of capitals states the bases alone. e = 2'-O-(2-methoxyethyl) (MOE); [5mC] = 5-methylcytosine; d = 2'-deoxy (DNA)

Data set [1] deals with mouse apolipoprotein B mRNA. As to the kind of experiment: Inhibition of mouse apolipoprotein B mRNA levels in primary mouse hepatocytes, real-time PCR. It is filed as cell-based. The conditions noted are these: Table 3, 150 nM, averages from two experiments. Here is the method:
Primary mouse hepatocytes were prepared from CD-1 mice purchased from Charles River Labs (Wilmington, Mass.) and were routinely cultured in Hepatoyte Attachment Media (Gibco) supplemented with 10% Fetal Bovine Serum (Gibco/Life Technologies, Gaithersburg, Md.), 250 nM dexamethasone (Sigma), and 10 nM bovine insulin (Sigma). Cells were seeded into 96-well plates (Falcon-Primaria #3872) at a density of 10000 cells/well for use in RT-PCR analysis.
When cells reached 80% confluency, they were treated with oligonucleotide. For cells grown in 96-well plates, wells were washed once with 200 μL OPTI-MEM™-1 reduced-serum medium (Gibco BRL) and then treated with 130 μL of OPTI-MEM™-1 containing 3.75 μg/mL LIPOFECTIN™ (Gibco BRL) and the desired concentration of oligonucleotide. After 4-7 hours of treatment, the medium was replaced with fresh medium. Cells were harvested 16-24 hours after oligonucleotide treatment.
Quantitation of apolipoprotein B mRNA levels was determined by real-time quantitative PCR using the ABI PRISM™ 7700 Sequence Detection System (PE-Applied Biosystems, Foster City, Calif.) according to manufacturer's instructions. This is a closed-tube, non-gel-based, fluorescence detection system which allows high-throughput quantitation of polymerase chain reaction (PCR) products in real-time. As opposed to standard PCR, in which amplification products are quantitated after the PCR is completed, products in real-time quantitative PCR are quantitated as they accumulate. This is accomplished by including in the PCR reaction an oligonucleotide probe that anneals specifically between the forward and reverse PCR primers, and contains two fluorescent dyes. A reporter dye (e.g., JOE, FAM, or VIC, obtained from either Operon Technologies Inc., Alameda, Calif. or PE-Applied Biosystems, Foster City, Calif.) is attached to the 5′ end of the probe and a quencher dye (e.g., TAMRA, obtained from either Operon Technologies Inc., Alameda, Calif. or PE-Applied Biosystems, Foster City, Calif.) is attached to the 3′ end of the probe. When the probe and dyes are intact, reporter dye emission is quenched by the proximity of the 3′ quencher dye. During amplification, annealing of the probe to the target sequence creates a substrate that can be cleaved by the 5′-exonuclease activity of Taq polymerase. […] With each cycle, additional reporter dye molecules are cleaved from their respective probes, and the fluorescence intensity is monitored at regular intervals by laser optics built into the ABI PRISM™ 7700 Sequence Detection System. In each assay, a series of parallel reactions containing serial dilutions of mRNA from untreated control samples generates a standard curve that is used to quantitate the percent inhibition after antisense oligonucleotide treatment of test samples.
Probes and primers to mouse apolipoprotein B were designed to hybridize to a mouse apolipoprotein B sequence, using published sequence information (GenBank accession number M35186, incorporated herein as SEQ ID NO: 10). For mouse apolipoprotein B the PCR primers were: forward primer: CGTGGGCTCCAGCATTCTA (SEQ ID NO: 11) reverse primer: […] (SEQ ID NO: 12) and the PCR probe was: FAM-[…]-TAMRA SEQ ID NO: 13) where FAM (PE-Applied Biosystems, Foster City, Calif.) is the fluorescent reporter dye) and TAMRA (PE-Applied Biosystems, Foster City, Calif.) is the quencher dye. For mouse GAPDH the PCR primers were: forward primer: […] (SEQ ID NO: 14) reverse primer: […] (SEQ ID NO:15) and the PCR probe was: 5′ JOE-[…]-TAMRA 3′ (SEQ ID NO: 16) where JOE (PE-Applied Biosystems, Foster City, Calif.) is the fluorescent reporter dye) and TAMRA (PE-Applied Biosystems, Foster City, Calif.) is the quencher dye.
In accordance with the present invention, a series of oligonucleotides was designed to target different regions of the mouse apolipoprotein B RNA, using published sequence (GenBank accession number M35186, incorporated herein as SEQ ID NO: 10). […]
Background: Quantitative PCR measures a nucleic acid by following its amplification.

In data set [2] the test system is rabbit apolipoprotein B mRNA. As to the kind of experiment: Inhibition of rabbit apolipoprotein B mRNA levels in primary rabbit hepatocytes, real-time PCR. It is filed as cell-based. On the set-up: % INHIB of rabbit apolipoprotein B mRNA levels: concentration or dose not given beside the values. The conditions noted are these: for Percent Inhibition of rabbit apolipoprotein B mRNA levels: averages from two experiments. An excerpt: Primary rabbit hepatocytes were purchased from Invitro Technologies (Gaithersburg, Md.) and maintained in Dulbecco's modified Eagle's medium (Gibco). When purchased, the cells had been seeded into 96-well plates for use in RT-PCR analysis and were confluent.
In accordance with the present invention, a series of oligonucleotides was designed to target different regions of rabbit apolipoprotein B, using published sequences (GenBank accession number X07480.1, incorporated herein as SEQ ID NO: 808, GenBank accession number M17780.1, incorporated herein as SEQ ID NO: 809, and a sequence was derived using previously described primers (Tanaka, Journ. Biol. Chem., 1993,268, 12713-12718) representing an mRNA of the rabbit apolipoprotein B, incorporated herein as SEQ ID NO: 810). “Target site” indicates the first (5′-most) nucleotide number on the particular target sequence to which the oligonucleotide binds. All compounds in Table 21 are chimeric oligonucleotides (“gapmers”) 20 nucleotides in length, composed of a central “gap” region consisting of ten 2′-deoxynucleotides, which is flanked on both sides (5′ and 3′ directions) by five-nucleotide “wings”. The wings are composed of 2′-methoxyethyl (2′-MOE)nucleotides. The internucleoside (backbone) linkages are phosphorothioate (P═S) throughout the oligonucleotide. All cytidine residues are 5-methylcytidines. The compounds were analyzed for their effect on rabbit apolipoprotein B mRNA levels in primary rabbit hepatocytes by quantitative real-time PCR as described in other examples herein. Primary rabbit hepatocytes were treated with 150 nM of the compounds in Table 21. For rabbit apolipoprotein B the PCR primers were: • forward primer: AAGCACCCCCAATGTCACC (SEQ ID NO: 811) • reverse primer: […] (SEQ ID NO: 812) and the PCR probe was: FAM-[…]-TAMRA (SEQ ID NO: 813) where FAM (PE-Applied Biosystems, Foster City, Calif.) is the fluorescent reporter dye) and TAMRA (PE-Applied Biosystems, Foster City, Calif.) is the quencher dye. Data are averages from two experiments. If present, “N.D.” indicates “no data”.
In accordance with the present invention, a subset of the antisense oligonuclotides in Example 42 was further investigated in dose-response studies. Treatment doses were 10, 50, 150 and 300 nM. ISIS 233160 (SEQ ID NO: 824), ISIS 233166 (SEQ ID NO: 830), ISIS 233172 (SEQ ID NO: 835), ISIS 233175 (SEQ ID NO: 838), and ISIS 233183 (SEQ ID NO: 846) were analyzed for their effect on rabbit apolipoprotein B mRNA levels in primary rabbit hepatocytes by quantitative real-time PCR as described in other examples herein.

Regarding “147475 (eA*eT*eT*eG*eT*dA*dT*dG*dT*dG*dA*dG*dA*dG*dG*eT*eG*eA*eG*eG; antisense) [compound 147475]”, in data set [1], the “% INHIB” value is given as 79%.
Still for that read-out and setting: as for “147476 (eG*eA*eG*eG*eA*dG*dA*dT*dT*dG*dG*dA*dT*d[5mC]*dT*eT*eA*eA*eG*eG; antisense) [compound 147476]”, the figure is 13%; as for “147478 (eT*e[5mC]*e[5mC]*eA*eG*dG*dA*dA*dT*dT*dG*dA*dG*d[5mC]*dT*eT*eG*eT*eG*e[5mC]; antisense) [compound 147478]”, 78%.
The same measure, in the same setting: as for “147480 (eT*e[5mC]*eT*e[5mC]*eA*d[5mC]*d[5mC]*d[5mC]*dT*d[5mC]*dA*dT*dG*d[5mC]*dT*e[5mC]*e[5mC]*eA*eT*eT; antisense) [compound 147480]”, the figure is 54%; as for “147481 (eT*eG*eA*e[5mC]*eT*dG*dT*d[5mC]*dA*dA*dG*dG*dG*dT*dG*eA*eG*e[5mC]*eT*eG; antisense) [compound 147481]”, 24%.
Still for that read-out and setting: the value for “147482 (eG*eT*e[5mC]*e[5mC]*eA*dG*d[5mC]*d[5mC]*dT*dA*dG*dG*dA*dA*d[5mC]*eA*e[5mC]*eT*e[5mC]*eA; antisense) [compound 147482]” was 59%.
As to “147484 (eT*eT*e[5mC]*eA*eT*d[5mC]*d[5mC]*dG*dA*dG*dA*dA*dG*dT*dT*eG*eG*eG*eA*e[5mC]; antisense) [compound 147484]”, the “% INHIB” value in data set [1] was 49%.
On the same count and under the same terms, the value for “147485 (eA*eT*eT*eT*eG*dG*dG*dA*d[5mC]*dG*dA*dA*dT*dG*dT*eA*eT*eG*e[5mC]*e[5mC]; antisense) [compound 147485]” was 64%; that for “147487 (eT*eT*e[5mC]*e[5mC]*e[5mC]*dA*dG*dT*d[5mC]*dA*dG*d[5mC]*dT*dT*dT*eA*eG*eT*eG*eG; antisense) [compound 147487]” was 73%; that for “147488 (eA*eG*e[5mC]*eT*eT*dG*d[5mC]*dT*dT*dG*dT*dT*dG*dG*dG*e[5mC]*eA*e[5mC]*eG*eG; antisense) [compound 147488]” was 72%.
The same measure, in the same setting: the value for “147489 (e[5mC]*e[5mC]*eT*eA*eT*dA*d[5mC]*dT*dG*dG*d[5mC]*dT*dT*d[5mC]*dT*eA*eT*eG*eT*eT; antisense) [compound 147489]” was 5%; that for “147491 (eG*eA*eG*eA*eA*dA*dT*d[5mC]*d[5mC]*dT*dT*d[5mC]*dA*dG*dT*eA*eA*eG*eG*eG; antisense) [compound 147491]” was 71%.
In the case of “147492 (e[5mC]*eA*eA*eT*eG*dG*dA*dA*dT*dG*d[5mC]*dT*dT*dG*dT*e[5mC]*eA*e[5mC]*eT*eG; antisense) [compound 147492]”, the “% INHIB” value in data set [1] came out at 68%.
In the case of “233181 (antisense eG*e[5mC]*eA*e[5mC]*e[5mC]*d[5mC]*dA*dG*dA*dA*dT*d[5mC]*dA*dT*dG*eG*e[5mC]*e[5mC]*eT*eG) [compound 233181]”, the “% INHIB of rabbit apolipoprotein B mRNA levels” value in data set [2] amounted to 0%.
On the same count and under the same terms, the value for “233182 (antisense e[5mC]*eT*eT*eG*eA*dT*dA*d[5mC]*dT*dT*dG*dG*dT*dA*dT*e[5mC]*e[5mC]*eA*e[5mC]*eA) [compound 233182]” was 59%.
Consider “233183 (antisense e[5mC]*eA*eG*eT*eG*dT*dA*dA*dT*dG*dA*dT*d[5mC]*dG*dT*eT*eG*eA*eT*eT) [compound 233183]”, for which the “% INHIB of rabbit apolipoprotein B mRNA levels” value in data set [2] was determined as 88%. Besides, the “Percent Inhibition of rabbit apolipoprotein B mRNA levels” value is 30% in data set [2] (10 nM), 71% in data set [2] (50 nM), 81% in data set [2] (150 nM) and 80% in data set [2] (300 nM).
As to “233184 (antisense eT*eA*eA*eA*eG*dT*d[5mC]*d[5mC]*dA*dG*d[5mC]*dA*dT*dT*dG*eG*eT*eA*eT*eT) [compound 233184]”, the “% INHIB of rabbit apolipoprotein B mRNA levels” value in data set [2] was determined as 69%.
With “233185 (antisense e[5mC]*eA*eA*e[5mC]*eA*dA*dT*dG*dT*d[5mC]*dT*dG*dA*dT*dT*eG*eG*eT*eT*eA) [compound 233185]”, the “% INHIB of rabbit apolipoprotein B mRNA levels” value in data set [2] stood at 73%.
In the case of “233186 (antisense eG*eA*eA*eG*eA*dG*dG*dA*dA*dG*dA*dA*dA*dG*dG*eA*eT*eA*eT*eG) [compound 233186]”, in data set [2], the “% INHIB of rabbit apolipoprotein B mRNA levels” value worked out at 60%.
Consider “233187 (antisense eT*eG*eA*e[5mC]*eA*dG*dA*dT*dG*dA*dA*dG*dA*dG*dG*eA*eA*eG*eA*eA) [compound 233187]”, for which, in data set [2], the “% INHIB of rabbit apolipoprotein B mRNA levels” value is on record as 66%.
Turning to “233188 (antisense eT*eT*eG*eT*eA*d[5mC]*dT*dG*dT*dA*dG*dT*dG*d[5mC]*dA*eT*e[5mC]*eA*eA*eT) [compound 233188]”, the “% INHIB of rabbit apolipoprotein B mRNA levels” value in data set [2] turned out to be 74%.
Turning to “233189 (antisense eG*e[5mC]*e[5mC]*eT*e[5mC]*dA*dA*dT*d[5mC]*dT*dG*dT*dT*dG*dT*eT*eT*e[5mC]*eA*eG) [compound 233189]”, the “% INHIB of rabbit apolipoprotein B mRNA levels” value in data set [2] was determined as 46%.
On the same count and under the same terms, the value for “233190 (antisense eA*e[5mC]*eT*eT*eG*dA*dG*d[5mC]*dG*dT*dG*d[5mC]*d[5mC]*d[5mC]*dT*e[5mC]*eT*eA*eA*eT) [compound 233190]” was 69%; that for “233191 (antisense eG*eA*eA*eA*eT*dG*dG*dA*dA*dT*dT*dG*dT*dA*dG*eT*eT*e[5mC]*eT*e[5mC]) [compound 233191]” was 31%.
